Reference: patent US4775674A, “Imidazoquinolinylether derivatives useful as phosphodiesterase and blood aggregation inhibitors” (Bristol-Myers Company, priority 1986, dated 1988)
In brackets after ≈: the same amount, converted by molar mass. Read-outs that look alike come from different tables or passages of the source.

Columns and labels:
[1] = system: collagen-induced platelet aggregation; assay: In vitro inhibition of platelet aggregation, collagen-induced (rabbit platelet rich plasma); assay type: cell-based; conditions: Oryctolagus cuniculus, collagen suspension 0.05 ml, read-out: Platelet Inhibition In Vitro - Rabbit PRP EC50 vs. collagen
Experimental: (§1) The aggregometer method of Born (1), as modified by Mustard, et al. (2) was used to assess the in vitro activity of the various compounds as to inhibition of adenosine diphosphate (ADP) and collagen-induced platelet aggregation. Platelet rich plasma (PRP) was separated by centrifugation from citrated (3.8 percent) rabbit blood. […] The various compounds tested were dissolved in dimethylsulfoxide (DMSO) so that 5 mcl added to the platelet rich plasma would yield the desired test concentration. Vehicle control trials were done and compared with aggregation induced in platelet rich plasma containing various concentrations of the test compounds. Dose response curves were obtained and Effective Concentration (EC50) values calculated.

[2] = target: T1, cAMP phosphodiesterase (human platelets) (Homo sapiens, UniProt Q14432); assay: Inhibition of cyclic AMP phosphodiesterase; assay type: biochemical; conditions: PDE from human platelets
T1 construct: enzynme obtained from human platelets; from tissue; host or cells: human platelets
Experimental: This assay is carried out essentially as described by Thompson, et al., Methods in Enzymology, 38, 205-212 (1974). Briefly, tritium labeled cyclic adenosine monophosphate (cAMP) is incubated with a phosphodiesterase (PDE) enzynme obtained from human platelets which converts a portion of the cAMP to 5'AMP in culture tubes. This reaction is terminated by submerging the tubes in a boiling water bath after which they are placed on ice and an aliquot of snake venom is added to each tube. This, during a second incubation, converts the 5'AMP to adenosine. Ion exchange resin is added to bind the remaining cyclic AMP. The tubes are centrifuged to sediment the resin and a portion of the clear supernatent (which contains radioactive adenosine) is counted in a liquid scintillation counter. The cAMP phosphodiesterase inhibition activity of a test agent is determined by pre-incubating the PDE enzyme preparation with the test agent.

[3] = system: adenosine diphosphate (ADP)-induced platelet aggregation; assay: In vitro inhibition of platelet aggregation, ADP-induced (rabbit platelet rich plasma); assay type: cell-based; conditions: Oryctolagus cuniculus, ADP 0.5 mcg/ml, read-out: Platelet Inhibition In Vitro - Rabbit PRP EC50 vs. ADP
Experimental: as §1

[4] = system: platelet aggregation (Ex Vivo vs. ADP); assay: Inhibition of platelet aggregation following oral administration (Ex vivo); assay type: in vivo; conditions: Rattus norvegicus, rats, oral by gavage, 2 hours after dosing
Experimental: This test is sometimes referred to in the art as an Ex vivo method and was initially described by Fleming, et al., Arch. Int. Pharmacodyn. Ther., 199, 164 (1972). Briefly, the assay is essentially carried out as follows.
Aggregometry is performed in vitro as previously described on platelet rich plasma samples obtained from rats dosed with either test compounds or the vehicle. In all cases, activity is determined 2 hours after the drug is administered orally at various doses by gavage as a suspension in […] plus a few drops of Tween 20.

[5] = system: ferrets (right ventricular contractile force, blood pressure); assay: In vivo inotropic activity in ferrets; parameters: species or system ferret; conditions: Mustela putorius, 1 h, anesthetized ferret, intraduodenal, 60 minutes
Experimental: This test is carried out in ferrets as follows. Fasted anesthetized ferrets are instrumented to study hemodynamic parameters as well as right ventricular contractile force (RVCF) using a Walton-Brodie open strain guage arch. Drugs are administered intraduodenally as solutions in DMSO (1 mL or less) and effects on myocardial contractile force and other parameters are monitored for 60 minutes after dosing. Changes in contractile force in response to drug treatment are expressed in terms of percent change from predose control.

[6] = vs predose control, read-out: Maximum Percentage Change Right Ventricular Contractile Force (RVCF)
[7] = read-out: Maximum Percentage Change Blood Pressure

T1 sequence (Q14432 whole entry): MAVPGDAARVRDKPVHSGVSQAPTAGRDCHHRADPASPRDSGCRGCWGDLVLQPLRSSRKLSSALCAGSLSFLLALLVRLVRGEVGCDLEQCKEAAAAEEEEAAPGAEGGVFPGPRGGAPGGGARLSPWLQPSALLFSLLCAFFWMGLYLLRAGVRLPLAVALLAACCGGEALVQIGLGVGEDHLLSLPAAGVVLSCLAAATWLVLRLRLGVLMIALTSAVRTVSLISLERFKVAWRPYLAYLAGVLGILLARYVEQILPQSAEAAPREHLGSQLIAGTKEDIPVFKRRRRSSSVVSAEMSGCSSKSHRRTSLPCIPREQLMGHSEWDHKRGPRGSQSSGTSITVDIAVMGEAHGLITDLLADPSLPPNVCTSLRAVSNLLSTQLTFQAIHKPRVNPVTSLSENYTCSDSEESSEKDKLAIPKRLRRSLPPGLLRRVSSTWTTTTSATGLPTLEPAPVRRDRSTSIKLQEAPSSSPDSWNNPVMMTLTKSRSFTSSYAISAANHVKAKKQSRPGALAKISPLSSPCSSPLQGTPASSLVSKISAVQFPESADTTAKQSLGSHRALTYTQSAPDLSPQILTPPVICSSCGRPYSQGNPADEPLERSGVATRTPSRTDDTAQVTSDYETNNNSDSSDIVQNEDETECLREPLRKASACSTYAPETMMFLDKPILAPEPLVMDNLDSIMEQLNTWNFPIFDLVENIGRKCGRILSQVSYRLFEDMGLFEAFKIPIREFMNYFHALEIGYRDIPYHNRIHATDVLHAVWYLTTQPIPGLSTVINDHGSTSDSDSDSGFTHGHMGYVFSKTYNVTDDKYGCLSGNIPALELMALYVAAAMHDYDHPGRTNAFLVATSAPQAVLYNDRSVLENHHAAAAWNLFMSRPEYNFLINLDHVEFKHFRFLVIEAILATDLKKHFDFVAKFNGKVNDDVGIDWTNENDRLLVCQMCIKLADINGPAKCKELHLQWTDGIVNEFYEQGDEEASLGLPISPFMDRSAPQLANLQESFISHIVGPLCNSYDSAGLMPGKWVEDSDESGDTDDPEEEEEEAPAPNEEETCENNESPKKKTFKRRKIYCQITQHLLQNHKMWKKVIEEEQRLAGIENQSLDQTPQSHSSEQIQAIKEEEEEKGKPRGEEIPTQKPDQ

SMILES	EC50 [1] [ng/mL]	IC50 [2] [nM]	EC50 [3] [ng/mL]	ED50 [4] [mg/kg]	change in vivo at 0.3 mg/kg [5, 6] [%]	change in vivo at 0.3 mg/kg [5, 7] [%]	change in vivo at 3 mg/kg [5, 6] [%]	change in vivo at 3 mg/kg [5, 7] [%]	change in vivo at 0.03 mg/kg [5, 6] [%]	change in vivo at 0.03 mg/kg [5, 7] [%]
CN(C(=O)CCCCOc1ccc2nc3[nH]c(=O)[nH]c3cc2c1)C1CCCCC1 [Example 32, N-Cyclohexyl-N-methyl-5-[(2,3-dihydro-2-oxo-1H-imidazo[4,5-b]quinolin-7-yl)oxo]pentanamide]	0.8 (≈ 2.02 nM)	2	3 (≈ 7.57 nM)	3.8	18 ± 4	-27 ± 10				
CN(C(=O)CCCOc1ccc2nc3nc(O)n(C)c3cc2c1)C1CCCCC1 [Example 31, N-Cyclohexyl-N-methyl-4-[(2,3-dihydro-1-methyl-2-oxo-1H-imidazo[4,5-b]quinolin-7-yl]oxo]butanamide]	18 (≈ 45.4 nM)	200	20 (≈ 50.4 nM)	2.1	0	-28 ± 5	3 ± 6	-36 ± 3		
COC(=O)CCCOc1ccc2nc3[nH]c(=O)[nH]c3cc2c1 [Example 10, Methyl 4-[(2,3-Dihydro-2-oxo-1H-imidazo[4,5-b]quinolin-7-yl)oxy]butanoate]	6 (≈ 19.9 nM)	400	20 (≈ 66.4 nM)	4.4	9 ± 10	-14 ± 9	-9 ± 1	-14 ± 8		
CN(C(=O)CCCCOc1ccc2nc3[nH]c(=O)[nH]c3cc2c1)C1CCCCCC1 [Example 33, N-Cycloheptyl-N-methyl-5-[(2,3-dihydro-2-oxo-1H-imidazo[4,5-b]quinolin-7-yl)oxy]pentanamide]	0.6 (≈ 1.46 nM)	0.4	2 (≈ 4.87 nM)	1.7	27 ± 8	-34 ± 2				
O=C(CCCOc1ccc2nc3[nH]c(=O)[nH]c3cc2c1)NC12CC3CC(CC(C3)C1)C2 [Example 16, 4-[(2,3-Dihydro-2-oxo-1H-imidazo[4,5-b]quinolin-7-yl)oxy]-N-(tricyclo[3.3.1^3,7]decan-7-yl)butanamide]	20 (≈ 47.6 nM)	1	50 (≈ 119 nM)	4			6 ± 3	-10 ± 4		
COC(=O)CN(C(=O)CCCOc1ccc2nc3[nH]c(=O)[nH]c3cc2c1)C1CCCCC1 [Example 21, N-Cyclohexyl-N-[4-[(2,3-dihydro-2-oxo-1H-imidazo[4,5-b]quinolin-7-yl)oxy]-1-oxobutyl]glycine Methyl Ester]	0.8 (≈ 1.82 nM)	0.5	2.5 (≈ 5.68 nM)	< 3			26	-26		
CN(C(=O)CCCOc1ccc2nc3[nH]c(=O)[nH]c3cc2c1)C1CCCCC1 [Example 30, N-Cyclohexyl-N-methyl-4-[(2,3-dihydro-2-oxo-1H-imidazo[4,5-b]quinolin-7-yl)oxy]butanamide]	1 (≈ 2.61 nM)	2	2 (≈ 5.23 nM)	2.4	41 ± 5	-27 ± 6	35 ± 2	-30 ± 2	8 ± 2	-3
